Measurements: the NIST ThermoML archive (doi:10.1021/je200150r)
± gives the expanded uncertainty stated by the source.

Assay: xn = mol fraction of the nth substance listed
Settings: 101 kPa, Liquid; for viscosity: Capillary tube (Ostwald / Ubbelohde) method; for mass density: Pycnometric method

OCc1ccccc1 [benzenemethanol] + CCC(C)=O
viscosity (303.15 K, x1 = 0.1003): 0.446 ± 0.006 mPa·s
viscosity (303.15 K, x1 = 0.2): 0.554 ± 0.007 mPa·s
viscosity (303.15 K, x1 = 0.301): 0.697 ± 0.009 mPa·s
viscosity (303.15 K, x1 = 0.3991): 0.876 ± 0.011 mPa·s
viscosity (303.15 K, x1 = 0.5001): 1.131 ± 0.014 mPa·s
viscosity (303.15 K, x1 = 0.6): 1.476 ± 0.019 mPa·s
viscosity (303.15 K, x1 = 0.7008): 1.947 ± 0.025 mPa·s
viscosity (303.15 K, x1 = 0.8001): 2.586 ± 0.033 mPa·s
viscosity (303.15 K, x1 = 0.8997): 3.452 ± 0.044 mPa·s
viscosity (303.15 K, x1 = 1): 4.689 ± 0.059 mPa·s
mass density (303.15 K, x1 = 0.1003): 825.4 ± 0.9 kg/m3
mass density (303.15 K, x1 = 0.2): 854.7 ± 0.9 kg/m3
mass density (303.15 K, x1 = 0.301): 882.5 ± 0.9 kg/m3
mass density (303.15 K, x1 = 0.3991): 907.5 ± 0.9 kg/m3
mass density (303.15 K, x1 = 0.5001): 932.6 ± 0.9 kg/m3
mass density (303.15 K, x1 = 0.6): 956.3 ± 0.9 kg/m3
mass density (303.15 K, x1 = 0.7008): 978.2 ± 0.9 kg/m3
mass density (303.15 K, x1 = 0.8001): 998.5 ± 0.9 kg/m3
mass density (303.15 K, x1 = 0.8997): 1018.1 ± 0.9 kg/m3
mass density (303.15 K, x1 = 1): 1037.6 ± 0.9 kg/m3
viscosity (308.15 K, x1 = 0.1003): 0.424 ± 0.006 mPa·s
viscosity (308.15 K, x1 = 0.2): 0.524 ± 0.007 mPa·s
viscosity (308.15 K, x1 = 0.301): 0.655 ± 0.008 mPa·s
viscosity (308.15 K, x1 = 0.3991): 0.818 ± 0.01 mPa·s
viscosity (308.15 K, x1 = 0.5001): 1.046 ± 0.013 mPa·s
viscosity (308.15 K, x1 = 0.6): 1.351 ± 0.017 mPa·s
viscosity (308.15 K, x1 = 0.7008): 1.761 ± 0.022 mPa·s
viscosity (308.15 K, x1 = 0.8001): 2.307 ± 0.029 mPa·s
viscosity (308.15 K, x1 = 0.8997): 3.033 ± 0.038 mPa·s
viscosity (308.15 K, x1 = 1): 4.058 ± 0.051 mPa·s
mass density (308.15 K, x1 = 0.1003): 820.4 ± 0.9 kg/m3
mass density (308.15 K, x1 = 0.2): 849.9 ± 0.9 kg/m3
mass density (308.15 K, x1 = 0.301): 877.8 ± 0.9 kg/m3
mass density (308.15 K, x1 = 0.3991): 903 ± 0.9 kg/m3
mass density (308.15 K, x1 = 0.5001): 928.2 ± 0.9 kg/m3
mass density (308.15 K, x1 = 0.6): 952 ± 0.9 kg/m3
mass density (308.15 K, x1 = 0.7008): 974.1 ± 0.9 kg/m3
mass density (308.15 K, x1 = 0.8001): 994.6 ± 0.9 kg/m3
mass density (308.15 K, x1 = 0.8997): 1014.3 ± 0.9 kg/m3
mass density (308.15 K, x1 = 1): 1033.8 ± 0.9 kg/m3
viscosity (313.15 K, x1 = 0.1003): 0.403 ± 0.005 mPa·s
viscosity (313.15 K, x1 = 0.2): 0.497 ± 0.006 mPa·s
viscosity (313.15 K, x1 = 0.301): 0.616 ± 0.008 mPa·s
viscosity (313.15 K, x1 = 0.3991): 0.765 ± 0.01 mPa·s
viscosity (313.15 K, x1 = 0.5001): 0.97 ± 0.012 mPa·s
viscosity (313.15 K, x1 = 0.6): 1.242 ± 0.016 mPa·s
viscosity (313.15 K, x1 = 0.7008): 1.599 ± 0.02 mPa·s
viscosity (313.15 K, x1 = 0.8001): 2.063 ± 0.026 mPa·s
viscosity (313.15 K, x1 = 0.8997): 2.682 ± 0.034 mPa·s
viscosity (313.15 K, x1 = 1): 3.531 ± 0.044 mPa·s
mass density (313.15 K, x1 = 0.1003): 815.4 ± 0.9 kg/m3
mass density (313.15 K, x1 = 0.2): 845.1 ± 0.9 kg/m3
mass density (313.15 K, x1 = 0.301): 873 ± 0.9 kg/m3
mass density (313.15 K, x1 = 0.3991): 898.4 ± 0.9 kg/m3
mass density (313.15 K, x1 = 0.5001): 923.8 ± 0.9 kg/m3
mass density (313.15 K, x1 = 0.6): 947.8 ± 0.9 kg/m3
mass density (313.15 K, x1 = 0.7008): 969.9 ± 0.9 kg/m3
mass density (313.15 K, x1 = 0.8001): 990.5 ± 0.9 kg/m3
mass density (313.15 K, x1 = 0.8997): 1010.4 ± 0.9 kg/m3
mass density (313.15 K, x1 = 1): 1030.1 ± 0.9 kg/m3
viscosity (318.15 K, x1 = 0.1003): 0.385 ± 0.005 mPa·s
viscosity (318.15 K, x1 = 0.2): 0.472 ± 0.006 mPa·s
viscosity (318.15 K, x1 = 0.301): 0.582 ± 0.007 mPa·s
viscosity (318.15 K, x1 = 0.3991): 0.718 ± 0.009 mPa·s
viscosity (318.15 K, x1 = 0.5001): 0.904 ± 0.011 mPa·s
viscosity (318.15 K, x1 = 0.6): 1.146 ± 0.014 mPa·s
viscosity (318.15 K, x1 = 0.7008): 1.461 ± 0.018 mPa·s
viscosity (318.15 K, x1 = 0.8001): 1.866 ± 0.023 mPa·s
viscosity (318.15 K, x1 = 0.8997): 2.391 ± 0.03 mPa·s
viscosity (318.15 K, x1 = 1): 3.103 ± 0.039 mPa·s
mass density (318.15 K, x1 = 0.1003): 810.4 ± 0.9 kg/m3
mass density (318.15 K, x1 = 0.2): 840.3 ± 0.9 kg/m3
mass density (318.15 K, x1 = 0.301): 868.3 ± 0.9 kg/m3
mass density (318.15 K, x1 = 0.3991): 893.9 ± 0.9 kg/m3
mass density (318.15 K, x1 = 0.5001): 919.4 ± 0.9 kg/m3
mass density (318.15 K, x1 = 0.6): 943.6 ± 0.9 kg/m3
mass density (318.15 K, x1 = 0.7008): 965.8 ± 0.9 kg/m3
mass density (318.15 K, x1 = 0.8001): 985.6 ± 0.9 kg/m3
mass density (318.15 K, x1 = 0.8997): 1006.5 ± 0.9 kg/m3
mass density (318.15 K, x1 = 1): 1026.3 ± 0.9 kg/m3
viscosity (323.15 K, x1 = 0.1003): 0.368 ± 0.005 mPa·s
viscosity (323.15 K, x1 = 0.2): 0.451 ± 0.006 mPa·s
viscosity (323.15 K, x1 = 0.301): 0.551 ± 0.007 mPa·s
viscosity (323.15 K, x1 = 0.3991): 0.676 ± 0.009 mPa·s
viscosity (323.15 K, x1 = 0.5001): 0.845 ± 0.011 mPa·s
viscosity (323.15 K, x1 = 0.6): 1.063 ± 0.013 mPa·s
viscosity (323.15 K, x1 = 0.7008): 1.341 ± 0.017 mPa·s
viscosity (323.15 K, x1 = 0.8001): 1.694 ± 0.021 mPa·s
viscosity (323.15 K, x1 = 0.8997): 2.144 ± 0.027 mPa·s
viscosity (323.15 K, x1 = 1): 2.747 ± 0.035 mPa·s
mass density (323.15 K, x1 = 0.1003): 805.3 ± 0.9 kg/m3
mass density (323.15 K, x1 = 0.2): 835.5 ± 0.9 kg/m3
mass density (323.15 K, x1 = 0.301): 863.6 ± 0.9 kg/m3
mass density (323.15 K, x1 = 0.3991): 889.3 ± 0.9 kg/m3
mass density (323.15 K, x1 = 0.5001): 915 ± 0.9 kg/m3
mass density (323.15 K, x1 = 0.6): 939.3 ± 0.9 kg/m3
mass density (323.15 K, x1 = 0.7008): 961.7 ± 0.9 kg/m3
mass density (323.15 K, x1 = 0.8001): 982.7 ± 0.9 kg/m3
mass density (323.15 K, x1 = 0.8997): 1002.7 ± 0.9 kg/m3
mass density (323.15 K, x1 = 1): 1022.5 ± 0.9 kg/m3
